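Cultured in 96-well plates, cells were exposed to test compound for 48 hours across five concentrations. TGI denotes the concentration required for complete inhibition of growth.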
Columns and labels:
Assay in all cases: NCI anticancer screen, dose series, 48 h
786-0 renal = system: 786-0 renal
A498 renal = system: A498 renal
A549 NSCLC = system: A549 NSCLC
ACHN renal = system: ACHN renal
CAKI-1 renal = system: CAKI-1 renal
CCRF-CEM leukemia = system: CCRF-CEM leukemia
COLO 205 colon = system: COLO 205 colon
DLD-1 colon = system: DLD-1 colon
DMS 114 small cell lung = system: DMS 114 small cell lung
DMS 273 small cell lung = system: DMS 273 small cell lung
EKVX NSCLC = system: EKVX NSCLC
HCC-2998 colon = system: HCC-2998 colon
HCT-116 colon = system: HCT-116 colon
HCT-15 colon = system: HCT-15 colon
HL-60(TB) leukemia = system: HL-60(TB) leukemia
HOP-18 NSCLC = system: HOP-18 NSCLC
HOP-62 NSCLC = system: HOP-62 NSCLC
HOP-92 NSCLC = system: HOP-92 NSCLC
HT29 colon = system: HT29 colon
IGROV1 ovarian = system: IGROV1 ovarian
K-562 leukemia = system: K-562 leukemia
KM12 colon = system: KM12 colon
KM20L2 colon = system: KM20L2 colon
LOX IMVI melanoma = system: LOX IMVI melanoma
LXFL 529 NSCLC = system: LXFL 529 NSCLC
M14 melanoma = system: M14 melanoma
M19-MEL melanoma = system: M19-MEL melanoma
MALME-3M melanoma = system: MALME-3M melanoma
MOLT-4 leukemia = system: MOLT-4 leukemia
NCI-H226 lung = system: NCI-H226 lung
NCI-H23 lung = system: NCI-H23 lung
NCI-H460 lung = system: NCI-H460 lung
NCI-H522 lung = system: NCI-H522 lung
OVCAR-3 ovarian = system: OVCAR-3 ovarian
OVCAR-4 ovarian = system: OVCAR-4 ovarian
OVCAR-5 ovarian = system: OVCAR-5 ovarian
OVCAR-8 ovarian = system: OVCAR-8 ovarian
RPMI-8226 leukemia = system: RPMI-8226 leukemia
RXF 393 renal = system: RXF 393 renal
RXF-631 renal = system: RXF-631 renal
SF-268 CNS = system: SF-268 CNS
SF-295 CNS = system: SF-295 CNS
SF-539 CNS = system: SF-539 CNS
SK-MEL-28 melanoma = system: SK-MEL-28 melanoma
SK-OV-3 ovarian = system: SK-OV-3 ovarian
SN12C renal = system: SN12C renal
SNB-19 CNS = system: SNB-19 CNS
SNB-75 CNS = system: SNB-75 CNS
SNB-78 CNS = system: SNB-78 CNS
SR leukemia = system: SR leukemia
SW-620 colon = system: SW-620 colon
TK-10 renal = system: TK-10 renal
U251 CNS = system: U251 CNS
UACC-257 melanoma = system: UACC-257 melanoma
UACC-62 melanoma = system: UACC-62 melanoma
UO-31 renal = system: UO-31 renal
XF 498 CNS = system: XF 498 CNS
SK-MEL-2 melanoma = system: SK-MEL-2 melanoma
SK-MEL-5 melanoma = system: SK-MEL-5 melanoma

## CC(C)(C)C1CCC(=O)C(C(O)CC2CC(=O)N(c3ccccc3)C(=O)C2)C1 (stereo not given)
786-0 renal
  TGI: > 100 µM
A498 renal
  TGI: > 100 µM
A549 NSCLC
  TGI: > 100 µM
ACHN renal
  TGI: > 100 µM
CAKI-1 renal
  TGI: > 100 µM
CCRF-CEM leukemia
  TGI: > 100 µM
COLO 205 colon
  TGI: > 100 µM
DLD-1 colon
  TGI: > 100 µM
DMS 114 small cell lung
  TGI: > 100 µM
DMS 273 small cell lung
  TGI: > 100 µM
EKVX NSCLC
  TGI: > 100 µM
HCC-2998 colon
  TGI: > 100 µM
HCT-116 colon
  TGI: > 100 µM
HCT-15 colon
  TGI: > 100 µM
HL-60(TB) leukemia
  TGI: > 100 µM
HOP-18 NSCLC
  TGI: > 100 µM
HOP-62 NSCLC
  TGI: > 100 µM
HOP-92 NSCLC
  TGI: > 100 µM
HT29 colon
  TGI: > 100 µM
IGROV1 ovarian
  TGI: > 100 µM
K-562 leukemia
  TGI: > 100 µM
KM12 colon
  TGI: > 100 µM
KM20L2 colon
  TGI: > 100 µM
LOX IMVI melanoma
  TGI: > 100 µM
LXFL 529 NSCLC
  TGI: > 100 µM
M14 melanoma
  TGI: > 100 µM
M19-MEL melanoma
  TGI: > 100 µM
MALME-3M melanoma
  TGI: > 100 µM
MOLT-4 leukemia
  TGI: > 100 µM
NCI-H226 lung
  TGI: > 100 µM
NCI-H23 lung
  TGI: > 100 µM
NCI-H460 lung
  TGI: > 100 µM
NCI-H522 lung
  TGI: > 100 µM
OVCAR-3 ovarian
  TGI: > 100 µM
OVCAR-4 ovarian
  TGI: > 100 µM
OVCAR-5 ovarian
  TGI: > 100 µM
OVCAR-8 ovarian
  TGI: > 100 µM
RPMI-8226 leukemia
  TGI: > 100 µM
RXF 393 renal
  TGI: > 100 µM
RXF-631 renal
  TGI: > 100 µM
SF-268 CNS
  TGI: > 100 µM
SF-295 CNS
  TGI: > 100 µM
SF-539 CNS
  TGI: > 100 µM
SK-MEL-28 melanoma
  TGI: > 100 µM
SK-OV-3 ovarian
  TGI: > 100 µM
SN12C renal
  TGI: > 100 µM
SNB-19 CNS
  TGI: > 100 µM
SNB-75 CNS
  TGI: > 100 µM
SNB-78 CNS
  TGI: > 100 µM
SR leukemia
  TGI: > 100 µM
SW-620 colon
  TGI: > 100 µM
TK-10 renal
  TGI: > 100 µM
U251 CNS
  TGI: > 100 µM
UACC-257 melanoma
  TGI: > 100 µM
UACC-62 melanoma
  TGI: > 100 µM
UO-31 renal
  TGI: > 100 µM
XF 498 CNS
  TGI: > 100 µM

## CCOC(=O)C1=C(C)N(C2OC(COC(C)=O)C(OC(C)=O)C(OC(C)=O)C2OC(C)=O)C(=O)NC1c1ccccc1 (stereo not given)
A498 renal
  TGI: > 100 µM
A549 NSCLC
  TGI: > 100 µM
ACHN renal
  TGI: > 100 µM
CAKI-1 renal
  TGI: > 100 µM
CCRF-CEM leukemia
  TGI: > 100 µM
COLO 205 colon
  TGI: > 100 µM
DLD-1 colon
  TGI: > 100 µM
DMS 114 small cell lung
  TGI: > 100 µM
EKVX NSCLC
  TGI: > 100 µM
HCC-2998 colon
  TGI: > 100 µM
HCT-116 colon
  TGI: > 100 µM
HCT-15 colon
  TGI: > 100 µM
HL-60(TB) leukemia
  TGI: > 100 µM
HOP-18 NSCLC
  TGI: > 100 µM
HOP-62 NSCLC
  TGI: > 100 µM
HT29 colon
  TGI: > 100 µM
IGROV1 ovarian
  TGI: > 100 µM
K-562 leukemia
  TGI: > 100 µM
KM12 colon
  TGI: > 100 µM
KM20L2 colon
  TGI: > 100 µM
LOX IMVI melanoma
  TGI: > 100 µM
LXFL 529 NSCLC
  TGI: > 100 µM
M14 melanoma
  TGI: > 100 µM
M19-MEL melanoma
  TGI: > 100 µM
MALME-3M melanoma
  TGI: > 100 µM
MOLT-4 leukemia
  TGI: > 100 µM
NCI-H226 lung
  TGI: > 100 µM
NCI-H23 lung
  TGI: > 100 µM
NCI-H460 lung
  TGI: > 100 µM
NCI-H522 lung
  TGI: 63.4 µM
OVCAR-3 ovarian
  TGI: > 100 µM
OVCAR-4 ovarian
  TGI: > 100 µM
OVCAR-5 ovarian
  TGI: > 100 µM
OVCAR-8 ovarian
  TGI: > 100 µM
RPMI-8226 leukemia
  TGI: > 100 µM
RXF-631 renal
  TGI: > 100 µM
SF-268 CNS
  TGI: > 100 µM
SF-295 CNS
  TGI: > 100 µM
SF-539 CNS
  TGI: > 100 µM
SK-MEL-2 melanoma
  TGI: > 100 µM
SK-MEL-28 melanoma
  TGI: > 100 µM
SK-MEL-5 melanoma
  TGI: > 100 µM
SK-OV-3 ovarian
  TGI: > 100 µM
SN12C renal
  TGI: > 100 µM
SNB-19 CNS
  TGI: > 100 µM
SNB-75 CNS
  TGI: > 100 µM
SNB-78 CNS
  TGI: > 100 µM
SR leukemia
  TGI: > 100 µM
SW-620 colon
  TGI: > 100 µM
U251 CNS
  TGI: > 100 µM
UACC-257 melanoma
  TGI: > 100 µM
UACC-62 melanoma
  TGI: > 100 µM
UO-31 renal
  TGI: > 100 µM

From PubChem BioAssay (NCI)
